# Test results: PubChem BioAssay AID2305 (GlaxoSmithKline (GSK), 2010)
# Where “and” joins values, the source holds several entries; their conditions need not be identical. Equal values may be shown once.
# Test system: P. falciparum 3D7 growth, pLDH absorbance
# Experiment: blood-stage malaria parasite growth potency – strain 3D7, dose response (AID 2305)
row,SMILES,IC50
1,COc1cc(CNC[C@@H](O)[C@H](Cc2ccccc2)NC(=O)c2cc(C3CCCC3)cc(N3CCCCS3(=O)=O)c2)cc(OC)c1,700 nM
2,COc1ccc(NC(=O)Nc2cccc(-c3ccc(-c4nc5ccc(C(F)(F)F)cc5[nH]4)cc3)c2)cc1,450 nM
3,S=C(Nc1ccc2c(c1)OCCO2)NC1CCC(CN2CCC(c3c[nH]c4ccccc34)CC2)CC1 (stereo unspecified),650 nM and 1000 nM
4,COC(=O)C(NC(=O)c1ccc(-c2ccc(-c3nc4ccccc4[nH]3)s2)cc1)c1ccc(O)cc1 (stereo unspecified),740 nM
5,CCN(CC)CCNc1nc(C=Cc2ccc(Cl)cc2)nc2cc3ccccc3cc12,150 nM
6,COc1ccc(-c2cnc3ccc(NC4CCC(O)CC4)nn23)cn1 (stereo unspecified),710 nM
7,Cc1ccc2c(-c3ccc([N+](=O)[O-])o3)cc(C)nc2c1,40 nM
8,Cc1nnnn1-c1ccc(C(=O)N2CCC3(CC2)CN(Cc2ccc(Cl)c(Cl)c2)C(=O)O3)cc1,180 nM
9,Cc1cc(C(=O)NC2CCN(Cc3ccccc3)CC2)ccc1-c1nc2cc(Cl)c(Cl)cc2[nH]1,960 nM
10,NCc1ccc(CNCc2ccc(-c3ccc(-c4nc5ccc(F)cc5[nH]4)cc3)cc2)cc1,400 nM
11,CS(=O)(=O)c1ccc(OCCCN(Cc2ccccc2C(F)(F)F)c2ccc(C#N)c(C(F)(F)F)c2)cc1,1020 nM
12,O=C(/C=C/c1c(Cl)cccc1Cl)NC1CCC(CN2[C@@H]3CC[C@H]2CC(c2c[nH]c4ccccc24)C3)CC1 (stereo partly specified),840 nM
13,Cn1cnc2nc(NCCc3ccccc3)nc(NCc3cccc4ccccc34)c21,330 nM
14,Cc1cccc(C)c1OC(=O)CSc1nnc(-c2ccccc2O)o1,880 nM
15,CCc1cn2c3c(cc(C(=O)N[C@@H](Cc4ccccc4)[C@H](O)CNC4CCOCC4)cc13)N(C(C)C)S(=O)(=O)CC2,80 nM
16,CC(=O)Nc1ccc(CN(Cc2ccc(OC(C)(C)C)cc2)Cc2ccc3c(c2)OCCO3)cc1,930 nM
17,Cc1noc(C)c1-c1cccc(CNCc2ccc(-c3cccc(-c4nc5ccc(F)cc5[nH]4)c3)cc2)c1,550 nM
18,COc1ccc2ncc(F)c([C@@H](O)CN3CCC(NCc4cc5c(cn4)OCCO5)CC3)c2c1,140 nM
19,CCOc1ccc(-c2nonc2NC(=O)c2ccccc2OC)cc1OCC,240 nM
20,CS(=O)(=O)c1ccc(CCNCc2ccc(-c3ccc(CN(C(=O)c4ccco4)C4CCN(Cc5ccccc5)CC4)cc3)nc2)cc1,880 nM
21,O=C(Nc1ccccc1)c1cnc[nH]1,990 nM
22,O=S(=O)(Nc1cccc(CCN2CCC(N3CCCCC3)CC2)c1)c1ccc(-c2ccccc2)cc1,1120 nM
23,COc1ccc(CC(C)NCC(O)c2cccc(Cl)c2F)cc1 (stereo unspecified),1080 nM
24,FC(F)(F)c1ccc2nccc(NN=Cc3ccc(Cl)cc3)c2c1,790 nM

row,SMILES,IC50
1,CCCNCc1ccc(-c2ccc(CNC3Cc4ccccc4C3)cc2)nc1,850 nM
2,COc1ccc2nccc([C@@H](O)CN3CCC(NCc4ccc5nsnc5c4)CC3)c2c1,960 nM
3,CS(=O)(=O)CCNCc1cc(-c2cc3ncnc(Nc4ccc(OCc5cccc(F)c5)c(Cl)c4)c3s2)cs1,330 nM
4,CN1CCC(C(=O)Nc2ccc(-c3ccc(-c4nc5ccccc5[nH]4)cc3)cc2)CC1,980 nM
5,O=C(CCCCCNC(=O)c1ccc(O)c(-c2ccc(Cl)c(Cl)c2)c1)NCCN1CCCC1,980 nM
6,CC(Cc1ccc(SCCSc2ccccc2)cc1)NCC(O)c1cccc(Cl)c1 (stereo unspecified),370 nM
7,N#Cc1ccc2nc(-c3cc(-c4cccc(F)c4)cnc3N)[nH]c2c1,190 nM
8,COc1cc(C(=O)NC2CC(C)(C)NC(C)(C)C2)ccc1-c1cc2cc(Cl)c(Cl)cc2[nH]1,720 nM
9,CN1CCC(C(=O)N(Cc2ccc(-c3ccc(CNCCc4ccccc4)cn3)cc2)C2CCN(Cc3ccccc3)CC2)CC1,790 nM
10,O=S(=O)(Nc1cccc(CCN2CCC(N3CCCCC3)CC2)c1)c1ccccc1C(F)(F)F,1150 nM
11,CC(=O)Nc1cccc(C(=O)Nc2cccc(-c3cccc(-c4nc5ccc(F)cc5[nH]4)c3)c2)c1,550 nM
12,CC(C)C[C@H](NC(=O)c1ccc(OCCN2CCOCC2)cc1)C(=O)NC(/C=N/N1CCCC1=O)C(C)C (stereo partly specified),250 nM
13,Cc1ccc(NC(=O)NC2CCN(CCCCCNC(=O)[C@@H]3C[C@H]3c3ccc(Cl)c(Cl)c3)CC2)cc1,540 nM
14,Cc1ccc(NC(=O)c2nc(N3CCN(c4ccncc4)CC3)ccc2Cl)cc1F,810 nM
15,CCNC(=O)c1cc(S(=O)(=O)N2CCN(c3ccccn3)CC2)cs1,870 nM
16,O=C(NC1CCC(N2CCC(Cc3ccc(F)cc3)CC2)CC1)c1cc2ccccc2[nH]1 (stereo unspecified),870 nM
17,O=C(Nc1cc(C(F)(F)F)cc(C(F)(F)F)c1)c1cc(C(F)(F)F)cc(C(F)(F)F)c1,870 nM
18,CCCC(C)C(=O)N1CCOC(COCc2cccc(C(F)(F)F)c2)(c2ccc(Cl)cc2)C1 (stereo unspecified),400 nM
19,NC(=NCc1ccc(O)cc1)Nc1nc(-c2ccc(OCCCn3ccnc3)cc2)cs1,750 nM
20,CN(CCCc1c[nH]c2ccccc12)CCC1CCC(NC(=O)/C=C/c2ccc(Cl)c(Cl)c2)CC1 (stereo unspecified),650 nM
21,COC(=O)c1cccc(CNCc2cccc(-c3ccc(-c4nc5ccc(C(F)(F)F)cc5[nH]4)cc3)c2)c1,260 nM
22,COc1ccc2cc(CNCCCCCCNCc3ccc4cc(OC)ccc4c3)ccc2c1,620 nM
23,CC(C)(C)c1cc(C(=O)N2CCN(c3cnccn3)CC2)n(Cc2ccccc2)n1,1140 nM
24,O=S(=O)(Nc1cc2c(cc1O)CCN(C1CCC1)CC2)c1ccc(-c2ccc(F)cc2)cc1,420 nM

row,SMILES,IC50
1,CCCCCCN1CCCN(Cc2ccc(C(=O)Nc3ccc(CC)cc3)cc2)CC1,760 nM
2,CCNC[C@@H](O)[C@H](Cc1ccccc1)NC(=O)c1cc2c3c(c1)c(CC)cn3CCS(=O)(=O)N2C,810 nM
3,CC(C)(CNCCOc1ccc(Cl)cc1)c1nc(-c2ccc(Cl)c(O)c2)c(-c2ccnc(N)n2)[nH]1,830 nM
4,CCOc1c(CNCCCNc2cc(=O)c3ccccc3[nH]2)cc(Br)cc1OC,1160 nM
5,Oc1ccccc1CCNCC1CCc2ccccc2C1 (stereo unspecified),690 nM
6,Cc1ccccc1N1CCN(c2ncc(C(=O)NC3CC3)cc2Cl)CC1,630 nM
7,CSc1nc2nc(C)c(Cc3cccc(F)c3)c(C)n2n1,900 nM
8,Cc1cc(NC(=O)NCCN2CCC(NS(=O)(=O)c3ccc(Br)cc3)C2)c2ccccc2n1 (stereo unspecified),600 nM
9,Nc1ccnc(N2CCC(CCOc3cc(C(F)(F)F)nc4c(C(F)(F)F)cccc34)CC2)c1,790 nM
10,NS(=O)(=O)c1ccc(CNc2ccc3ncc(-c4ccc(Cl)cc4)n3n2)cc1,280 nM
11,CC(C)CCOc1ccc(NC(=O)c2cccs2)cc1,510 nM
12,COc1ccc(OC)c(CC2c3ccc(Br)c(O)c3CCN2C)c1 (stereo unspecified),750 nM
13,Cc1cc(Nc2ccccc2)nc(NCCOc2ccccc2)n1,730 nM
14,O=[N+]([O-])c1cc2c(cc1C=NNc1nc(Nc3ccccc3)nc(Nc3ccccc3)n1)OCO2,870 nM
15,CC1(C)N=C(NC(=O)Nc2ccc([N+](=O)[O-])cc2)N=C(N)N1OCc1cccc2ccccc12,60 nM
16,O=C(NCCNc1ccnc(Nc2ccc(F)cc2)n1)c1cc2ccccc2s1,750 nM
17,O=C(Nc1ccc(Oc2ccccc2)cc1)N(CCN1CCCC1)Cc1ccc(-c2ccc(CN3CCNCC3)cc2)cc1,890 nM
18,c1cncc(CCNCc2ccc(-c3cccc(-c4nc5ccccc5[nH]4)c3)cc2)c1,160 nM
19,Cc1nc(C)n(CC(=O)Nc2cccc(-c3cccc(-c4nc5ccc(C(F)(F)F)cc5[nH]4)c3)c2)n1,760 nM
20,CCCN(CCC)C(=O)c1cc(C(=O)N[C@@H](Cc2ccccc2)[C@H](O)CNC2CC2)cc(N2CCCCS2(=O)=O)c1,160 nM
21,CNc1ccc(CNCc2cccc(-c3ccc(-c4nc5ccccc5[nH]4)cc3)c2)cc1,300 nM
22,C[C@H](Cc1ccc(OCCCCCCCOc2ccc(C[C@@H](C)NC[C@H](O)c3cccc(Cl)c3)cc2)cc1)NC[C@H](O)c1cccc(Cl)c1,190 nM
23,Cc1cc(NC(=O)Nc2ccc3nc(C)oc3c2)c2cc(Cl)ccc2n1,1120 nM
24,O=C(/C=C/c1ccc(Cl)c(Cl)c1)N1CCC(CN2CCC(c3c(-c4ccc(F)cc4)[nH]c4ccccc34)CC2)CC1,170 nM

row,SMILES,IC50
1,Oc1ccc(CCNCCCCCCNCCc2ccc(-c3ccccc3)cc2)cc1O,600 nM
2,C(=N\Nc1nccc2sc(-c3cccnc3)cc12)/c1cccnc1,420 nM
3,O=C(NCc1cc2c(cc1Cl)OCO2)c1ccc(CNC2CCN(Cc3ccccc3)CC2)cc1,830 nM
4,CN(C)c1ccc2c(c1)Sc1cc(N(C)C)ccc1N2C(=O)c1cccc(C(=O)O)c1,180 nM
5,CCCCCCN1CCC(NCc2ccc(C)cc2)CC1,860 nM
6,CCCCNC(=O)[C@@H](NC(=O)c1ccc(O)c(-c2ccc(Cl)c(Cl)c2)c1)C(C)C,230 nM
7,COc1ccc2ncc(F)c([C@H](O)CN3CCC(NCc4ccc5c(c4)NC(=O)CO5)CC3)c2c1,170 nM
8,COc1ccc(NC(=O)[C@H](CC(C)C)Nc2cc(C)nc(NCc3cccc(C)c3)n2)cc1,1020 nM
9,Cc1cc(CNCCCCCNCc2cccc([N+](=O)[O-])c2)ccc1O,780 nM
10,COc1ccc(C(=O)NCc2ccc(N)nc2C)cc1Nc1ncc(-c2cccc(N(C)C)c2)cn1,900 nM
11,CN(Cc1c(Cl)cnn1C)S(=O)(=O)c1ccc2ccccc2c1,1040 nM
12,CO/C(=C\C=C\c1cc2cc(Cl)c(Cl)cc2[nH]1)C(=O)NCCCN1CCCC[C@@H]1C,750 nM
13,Cc1c(Cc2ccccc2)c(=O)oc2c(C)c3c(cc12)CN(CC(C)c1ccccc1)CO3 (stereo unspecified),450 nM
14,Cc1[nH]c(C)c(-c2ccc(Oc3cccc(OC(F)(F)F)c3)cc2)c(=O)c1Cl,680 nM
15,O=C(O[C@@H]1CN[C@H](C#Cc2cc3c(Nc4ccc5c(cnn5Cc5ccccc5)c4)ncnc3s2)C1)N1CCCC1,420 nM
16,CCOC(=O)c1[nH]c(-c2ccccc2)nc1-n1nc(C)cc1C,690 nM
17,O=C(NCCCN1CCCCC1)c1ccc(Nc2nccc(Nc3ccc(Oc4ccccc4)cc3)n2)cc1,630 nM
18,O=S(=O)(NC1CCC(CN2CCC(c3c[nH]c4ccccc34)CC2)CC1)c1ccc(Cl)c(Cl)c1 (stereo unspecified),820 nM
19,Cc1ccc(N2C(N)=NC(N)=NC2c2ccccc2)cc1 (stereo unspecified),60 nM
20,Cc1cc(NN=Cc2ccc(F)cc2)c2ccc(C(F)(F)F)cc2n1,820 nM
21,CN1CCC(NCc2ccc(-c3cccc(-c4nc5ccccc5[nH]4)c3)cc2)CC1,130 nM
22,C#C[C@H]1O[C@@H](n2cnc3c(Nc4cc(Br)cc(C(F)(F)F)c4)ncnc32)[C@H](O)[C@@H]1O,1030 nM
23,CC(=O)OCCN1C(=O)c2ccc3c4c(ccc(c24)C1=O)C(=O)N(CCOC(C)=O)C3=O,240 nM
24,O=C(Nc1ccc(F)cc1)c1ccc(C(=O)NC2CCN(CC3CCCCC3)CC2)cc1,540 nM
